For this series, the system named is estrogen receptor (rat uterine cytosol). Description: DSSTox (NCTRER) National Center for Toxicological Research Estrogen Receptor Binding Database.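 For relative binding affinity: ratio of estradiol IC50 over compound IC50 times 100 so estradiol equals 100.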 The conditions noted are these: rat uterine cytosol ER competitive binding, RBA; for relative binding affinity: hits give high values. The source says: Researchers within FDA's National Center for Toxicological Research (NCTR) generated a database of experimental estrogen receptor binding results for the express purpose of developing improved QSAR models to predict ER binding affinities.The NCTR ER database is a structurally diverse set of natural, synthetic, and environmental estrogens covering most known estrogenic classes and spanning a wide range of biological activity. It represents the largest published ER binding database of same-assay results generated in a single laboratory. […] Information on the percent purity and purchasing source for all chemicals are not included in the DSSTox SDF, but can be obtained from the original NCTR ER Source database and Main Citations listed below. The main citation (Fang et al., 2001) surveys the NCTR ER database from a chemical class based, structure-activity relationship (SAR) perspective. Qualitative SAR characteristics of the NCTR ER database are discussed and a set of general hierarchical rules for identifying potential estrogens are presented. The DSSTox NCTRER SDF augments the original NCTR ER database with chemical class and SAR information abstracted from Fang et al. (2001). The DSSTox SDF file supplements the measured ER relative binding affinity for each chemical (ER_RBA) with chemical class assignment to one of 6 major estrogenic classes further divided into 20 subclasses (ChemClass_ERB), along with a qualitative activity measure, ActivityCategory_ER_RBA. A brief narrative SAR rationale pertaining to ER RBA patterns observed by Fang et al. (2001) for each of the 20 subclasses within the database are provided in the field, ActivityCategory_Rationale_ChemClass_ERB. The original NCTR ER database, from which the expanded DSSTox NCTRER was formed, is contained within a larger Endocrine Disruptor Knowledge Base (EDKB) accessible from the FDA Source Website. That website provides online access to a relational database comprised of in vitro and in vivo experimental data for about 2000 natural and synthetic compounds, much of this extracted from the literature and representing testing in many laboratories. Data are included for biological assays that measure estrogenic and androgenic activity. Estrogenic endpoints include in vitro assays for estrogen receptor competitive binding affinity, cell proliferation, and reporter-gene assays, and in vivo assays for uterotrophic activity (i.e., uterine weight gain and vaginal cornification). The database also contains a bibliography of over 1200 citations, many of which include abstracts.
Estrogen receptor relative binding affinity is determined using a competitive receptor binding assay as described in NCTRER Ref (Blair et al., 2000). Briefly, a chemical competes with radiolabeled E2 (i.e., estradiol) for binding to the ER in rat uterine cytosol and the concentration of chemical that causes 50% inhibition of E2 binding (i.e., IC50) is measured. The ER_RBA is calculated by dividing the IC50 of E2 (9X10-10M) by the IC50 of the competitor and multiplying by 100 (E2 RBA = 100). The validated assay tested 1nM E2 with concentrations of competitor ranging from 1nM to 1mM. The larger the ER_RBA values, the greater the binding affinity; ER_RBA > 100 means compound has greater binding affinity than natural ER ligand, E2. […] Activity Score is mapping of LOG_ER_RBA values (ER-RBA>1E-5), spanning activity range [MIN, MAX] onto Integer 20-100 Activity range, where 100 is highest potency and 20 is lowest active potency. If Activity Outcome is "active": Activity Score = 80 * INTEGER[(LOG_ER_RBA - MIN)/(MAX […] MIN)]. If Activity Outcome is "inconclusive" (i.e., slight binder): Activity Score = 5.

Setting [1] is: ChemClass_ERB: Diphenylmethanes DDTs.
The mark [2] stands for this setting: ChemClass_ERB: DES Hexestrol derivatives.
[3] abbreviates: ChemClass_ERB: Phytoestrogens Flavanones.
[4] abbreviates: ChemClass_ERB: Diphenylmethanes Diphenolalkanes.
Setting [5] is: ChemClass_ERB: Steroids Without aromatic A ring.
[6] abbreviates: ChemClass_ERB: Phytoestrogens Flavones.
Where [7] appears, read: ChemClass_ERB: Steroids With aromatic A ring.
The mark [8] stands for this setting: ChemClass_ERB: Phytoestrogens Mycoestrogens.

Records with an inconclusive call do not appear. Calls of active or inactive are those of the source.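 Rule for the calls: active = relative estrogen receptor binding affinity above 1E-5, where estradiol scores 100; inconclusive = weak binder, under half inhibition at top dose, or affinity below 1E-5; inactive = no binding seen, affinity zero.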

On to `Nc1ccc(/C=C/c2ccc(N)cc2)cc1`, for which the result (ChemClass_ERB: Misc) was inactive.

Turning to `O=C(O)COc1cc(Cl)c(Cl)cc1Cl`, the outcome (ChemClass_ERB: Misc) was inactive.

Regarding `COc1ccc(C(c2ccc(O)cc2)C(Cl)(Cl)Cl)cc1` (stereo not drawn), the relative binding affinity under setting [1] was 0.129%.

Turning to `Oc1ccc(CCc2ccccc2)cc1`, under setting [2], the relative binding affinity was 0.00204%.

As for `CCC(c1ccc(O)c(O)c1)C(CC)c1ccc(O)c(O)c1` (stereo not drawn), under setting [2], the relative binding affinity was 15.5%.

Consider `C[Si](C)(O[Si](C)(C)c1ccccc1)c1ccccc1`, for which the relative binding affinity (ChemClass_ERB: Misc) was 0.00069%.

`O=C1CC(c2ccccc2)Oc2ccc(O)cc21` (stereo not drawn): the relative binding affinity under setting [3] is 0.00089%.

For `Clc1c(Cl)c(Cl)c(Cl)c(Cl)c1Cl`, the result (ChemClass_ERB: Misc) was inactive.

With `O=S1(=O)OC(c2ccc(O)cc2)(c2ccc(O)cc2)c2ccccc21`, under setting [4], the relative binding affinity was 0.00056%.

With `O=C(c1ccc(O)cc1)c1ccc(O)cc1`, the relative binding affinity (ChemClass_ERB: Diphenylmethanes Benzophenone) was 0.0035%.

As to `CC(=O)[C@H]1CC[C@H]2[C@@H]3CCC4=CC(=O)CC[C@]4(C)[C@H]3CC[C@]12C`, under setting [5], the result was inactive.

Take `ClC1C(Cl)C(Cl)C(Cl)C(Cl)C1Cl` (stereo not drawn): where the note is “ChemClass_ERB: Misc”, the outcome was inactive.

With `O=c1c(O)c(-c2ccc(O)cc2O)oc2cc(O)cc(O)c12`, the relative binding affinity under setting [6] was 0.00081%.

With `Cc1cc(O)ccc1Cl`, the relative binding affinity (ChemClass_ERB: Phenols Alkyl) was 0.00041%.

Turning to `Clc1ccc(C(c2ccccc2Cl)C(Cl)(Cl)Cl)cc1` (stereo not drawn), the relative binding affinity under setting [1] was 0.00141%.

`C[C@]12CC[C@@H]3c4ccc(O)cc4C[C@@H](CCCCCCCCCS(=O)CCCC(F)(F)C(F)(F)F)[C@H]3[C@@H]1CC[C@@H]2O` (stereo partly drawn): the relative binding affinity under setting [7] was 37.1%.

Consider `CCC(c1ccc(O)cc1)C(CC)c1cc(C)c(O)c(C)c1` (stereo not drawn), for which, under setting [2], the relative binding affinity was 8.91%.

For `Clc1ccc(-c2ccc(Cl)cc2)cc1`, where the note is “ChemClass_ERB: Biphenyls PCBs”, the result was inactive.

`O=C(O)CCCCCCC(=O)O`: for the setting “ChemClass_ERB: Misc”, the outcome was inactive.

For the compound `Oc1cc(O)c2c(c1)O[C@H](c1ccc(O)c(O)c1)[C@@H](O)C2`, the result under setting [3] was inactive.

Take `CCC(C)(C)c1ccc(O)cc1`: the relative binding affinity (ChemClass_ERB: Phenols Alkyl) is 0.00054%.

As for `C/C(=C(/C)c1ccc(O)cc1)c1ccc(O)cc1`, the relative binding affinity (ChemClass_ERB: DES Derivatives) is 14.4%.

For `CN(C)c1ccc(Cc2ccc(N(C)C)cc2)cc1`, the outcome (ChemClass_ERB: Misc) was inactive.

Regarding `O=c1c(-c2ccc(O)cc2)coc2cc(O)c(O)cc12`, where the note is “ChemClass_ERB: Phytoestrogens Isoflavones”, the result was inactive.

Take `COc1ccc2[nH]cc(CCNC(C)=O)c2c1`: the result (ChemClass_ERB: Misc) was inactive.

For the compound `CCNc1nc(Cl)nc(NCC)n1`, where the note is “ChemClass_ERB: Misc”, the outcome was inactive.

With `CC(C)COC(=O)c1ccccc1C(=O)OCC(C)C`, under “ChemClass_ERB: Misc”, the result was inactive.

Turning to `O=C1CC(c2ccc(O)cc2)Oc2ccccc21` (stereo not drawn), under setting [3], the relative binding affinity is 0.00223%.

As for `O=C(O)/C=C/c1ccccc1`, the result (ChemClass_ERB: Misc) was inactive.

On to `C#C[C@]1(O)CC[C@H]2[C@@H]3CCc4cc(OC)ccc4[C@H]3CC[C@@]21C`, for which the relative binding affinity under setting [7] is 2.24%.

As to `CCc1cccc(C)c1N(C(=O)CCl)C(C)COC` (stereo not drawn), the outcome (ChemClass_ERB: Misc) was inactive.

For `C[C@@H]1C[C@H]2[C@@H]3CCC4=CC(=O)C=C[C@]4(C)[C@@]3(F)[C@@H](O)C[C@]2(C)[C@@]1(O)C(=O)CO`, under setting [5], the result was inactive.

With `CC(C)(c1ccc(O)cc1)c1ccc(O)cc1`, under setting [4], the relative binding affinity was 0.0078%.

Take `C[C@]12CC[C@@H](O)C[C@@H]1CC[C@@H]1[C@@H]2CC[C@]2(C)[C@@H](O)CC[C@@H]12`: the relative binding affinity under setting [5] was 0.0021%.

Take `C[C@@H]1CCC[C@H](O)CCC/C=C/c2cc(O)cc(O)c2C(=O)O1`: under setting [8], the relative binding affinity was 0.204%.

`COc1ccc(C(c2ccc(OC)cc2)C(Cl)(Cl)Cl)cc1`: under setting [1], the outcome was inactive.

As to `CC[C@@H]1c2ccc3cc(OC)ccc3c2CC[C@]1(C)C(=O)O`, the relative binding affinity (ChemClass_ERB: Misc) was 0.00181%.

As to `CCCCCCC=O`, for the setting “ChemClass_ERB: Misc”, the outcome was inactive.

Regarding `ClC1=C(Cl)[C@]2(Cl)[C@@H]3[C@@H]4C[C@@H]([C@H]5O[C@@H]45)[C@@H]3[C@@]1(Cl)C2(Cl)Cl`, the outcome (ChemClass_ERB: Misc) was inactive.

As to `C[C@]12CC[C@@H]3c4cc(O)c(O)cc4CC[C@H]3[C@@H]1CC[C@@H]2O`, the relative binding affinity under setting [7] is 29.5%.

As to `CCCCCCCCOC(=O)c1ccccc1C(=O)OCCCCCCCC`, for the setting “ChemClass_ERB: Misc”, the result was inactive.

Consider `CCCCN(C)C(=O)CCCCCCCCCC[C@@H]1Cc2cc(O)ccc2[C@H]2CC[C@]3(C)[C@@H](O)CC[C@H]3[C@H]12`, for which the relative binding affinity under setting [7] is 14.4%.

As to `ClC1=C(Cl)C2(Cl)C3C(Cl)C=CC3C1(Cl)C2(Cl)Cl` (stereo not drawn), the result (ChemClass_ERB: Misc) was inactive.

Regarding `O=c1cc(-c2ccc(O)cc2)oc2ccc(O)cc12`, under setting [6], the relative binding affinity was 0.151%.

Turning to `ClC(Cl)=C(c1ccc(Cl)cc1)c1ccc(Cl)cc1`, the result under setting [1] was inactive.

Consider `COc1cc(C=O)ccc1O`, for which the outcome (ChemClass_ERB: Phenols Alkyloxy) was inactive.

As for `CCc1cccc(CC)c1N(COC)C(=O)CCl`, the result (ChemClass_ERB: Misc) was inactive.

As for `O=C(/C=C/c1ccc(O)cc1)c1ccc(O)cc1O`, for the setting “ChemClass_ERB: Phytoestrogens Chalconoids”, the relative binding affinity is 0.055%.

For the compound `CCCCOC(=O)c1ccccc1C(=O)OCCCC`, the outcome (ChemClass_ERB: Misc) was inactive.

With `O=S1OCC2C(CO1)C1(Cl)C(Cl)=C(Cl)C2(Cl)C1(Cl)Cl` (stereo not drawn), the result (ChemClass_ERB: Misc) was inactive.

As to `Oc1ccccc1`, the result (ChemClass_ERB: Phenols Alkyl) was inactive.

In the case of `CC(C)(c1ccccc1)c1ccc(O)cc1`, under setting [4], the relative binding affinity was 0.00501%.

Take `Oc1ccc(-c2cc(Cl)ccc2Cl)cc1`: under “ChemClass_ERB: Biphenyls PCBs”, the relative binding affinity is 0.0363%.

For the compound `COc1ccc([C@@H]2CC(=O)c3c(O)cc(O)cc3O2)cc1O`, under setting [3], the result was inactive.

As to `C/C=C(/C(=C/C)c1ccc(O)cc1)c1ccc(O)cc1`, the relative binding affinity under setting [2] was 37.1%.

As to `O=c1c(O)c(-c2ccc(O)c(O)c2)oc2cc(O)ccc12`, the relative binding affinity under setting [6] was 0.00446%.

Take `Clc1ccc(-c2ccccc2Cl)cc1`: for the setting “ChemClass_ERB: Biphenyls PCBs”, the relative binding affinity was 0.00024%.

As to `CC(CCC(=O)O)(c1ccc(O)cc1)c1ccc(O)cc1`, under setting [4], the relative binding affinity is 0.00074%.

Take `CC/C(=C(\c1ccccc1)c1ccc(OCCN(C)C)cc1)c1ccc(O)cc1`: the relative binding affinity (ChemClass_ERB: DES Triphenylethylenes) was 174%.

For `C[C@H]1CCC[C@H](O)CCC/C=C/c2cc(O)cc(O)c2C(=O)O1`, under setting [8], the relative binding affinity was 42.7%.

Take `O=Cc1ccco1`: the result (ChemClass_ERB: Misc) was inactive.

As for `C=CC1(C)OC(=O)N(c2cc(Cl)cc(Cl)c2)C1=O` (stereo not drawn), where the note is “ChemClass_ERB: Misc”, the outcome was inactive.

Consider `O=c1c(O)c(-c2ccc(O)c(O)c2)oc2cc(O)cc(O)c12`, for which the result under setting [6] was inactive.

For the origin of these results see PubChem BioAssay AID1204 (EPA DSSTox, 2008).
